From the supplement of paper PMC10307832

Key:
Experiment in all cases: relative viability (nuclei count vs DMSO), 5 days (fraction); higher = more cells survive
Bemcentinib + Alpelisib = compound: Nc1nc(Nc2ccc3c(c2)CC[C@@H](N2CCCC2)CC3)nn1-c1cc2c(nn1)-c1ccccc1CCC2 [Bemcentinib] + Cc1nc(NC(=O)N2CCC[C@H]2C(N)=O)sc1-c1ccnc(C(C)(C)C(F)(F)F)c1 [Alpelisib] (partner 2 µM)
In short: (§1)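 Lung cancer cell lines, seeded in 1536-well plates, were treated the following day by pin tool with a single drug or with five library-drug doses (not always all listed) in √10 steps on top of a fixed anchor-drug dose. Cells were fixed and nuclei stained in one step after 5 days, and nuclei were counted. Relative viability is the nuclei count for treated wells divided by that for vehicle wells, reported as medians of duplicate plates.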

Bemcentinib + Crizotinib = compound: Nc1nc(Nc2ccc3c(c2)CC[C@@H](N2CCCC2)CC3)nn1-c1cc2c(nn1)-c1ccccc1CCC2 [Bemcentinib] + C[C@@H](Oc1cc(-c2cnn(C3CCNCC3)c2)cnc1N)c1c(Cl)ccc(F)c1Cl [Crizotinib] (partner 1 µM)
In short: as §1

Bemcentinib + Foretinib = compound: Nc1nc(Nc2ccc3c(c2)CC[C@@H](N2CCCC2)CC3)nn1-c1cc2c(nn1)-c1ccccc1CCC2 [Bemcentinib] + COc1cc2c(Oc3ccc(NC(=O)C4(C(=O)Nc5ccc(F)cc5)CC4)cc3F)ccnc2cc1OCCCN1CCOCC1 [Foretinib] (partner 0.25 µM)
In short: as §1

Bemcentinib + OSI-027 = compound: Nc1nc(Nc2ccc3c(c2)CC[C@@H](N2CCCC2)CC3)nn1-c1cc2c(nn1)-c1ccccc1CCC2 [Bemcentinib] + COc1cccc2cc(-c3nc([C@H]4CC[C@H](C(=O)O)CC4)n4ncnc(N)c34)[nH]c12 [OSI-027] (partner 0.5 µM)
In short: as §1

Cell Line: PC-3 [JPC-3]
- relative viability (Bemcentinib + Alpelisib; first compound 0.04 µM): 0.986
- relative viability (Bemcentinib + Alpelisib; first compound 0.1265 µM): 1.1
- relative viability (Bemcentinib + Alpelisib; first compound 0.4 µM): 0.985
- relative viability (Bemcentinib + Alpelisib; first compound 1.265 µM): 1.1
- relative viability (Bemcentinib + Alpelisib; first compound 4 µM): 1.08
- relative viability (Bemcentinib + Crizotinib; first compound 0.04 µM): 0.959
- relative viability (Bemcentinib + Crizotinib; first compound 0.1265 µM): 1.03
- relative viability (Bemcentinib + Crizotinib; first compound 0.4 µM): 1
- relative viability (Bemcentinib + Crizotinib; first compound 1.265 µM): 0.974
- relative viability (Bemcentinib + Crizotinib; first compound 4 µM): 1.09
- relative viability (Bemcentinib + Foretinib; first compound 0.04 µM): 1.07
- relative viability (Bemcentinib + Foretinib; first compound 0.1265 µM): 1.05
- relative viability (Bemcentinib + Foretinib; first compound 0.4 µM): 1.1
- relative viability (Bemcentinib + Foretinib; first compound 1.265 µM): 0.992
- relative viability (Bemcentinib + Foretinib; first compound 4 µM): 1.03
- relative viability (Bemcentinib + OSI-027; first compound 0.04 µM): 0.765
- relative viability (Bemcentinib + OSI-027; first compound 0.1265 µM): 0.727
- relative viability (Bemcentinib + OSI-027; first compound 0.4 µM): 0.829
- relative viability (Bemcentinib + OSI-027; first compound 1.265 µM): 0.739
- relative viability (Bemcentinib + OSI-027; first compound 4 µM): 0.752

Cell Line: PC-14
- relative viability (Bemcentinib + Alpelisib; first compound 0.04 µM): 0.995
- relative viability (Bemcentinib + Alpelisib; first compound 0.1265 µM): 1.01
- relative viability (Bemcentinib + Alpelisib; first compound 0.4 µM): 0.925
- relative viability (Bemcentinib + Alpelisib; first compound 1.265 µM): 0.985
- relative viability (Bemcentinib + Alpelisib; first compound 4 µM): 1.04
- relative viability (Bemcentinib + Crizotinib; first compound 0.04 µM): 0.838
- relative viability (Bemcentinib + Crizotinib; first compound 0.1265 µM): 0.937
- relative viability (Bemcentinib + Crizotinib; first compound 0.4 µM): 0.879
- relative viability (Bemcentinib + Crizotinib; first compound 1.265 µM): 0.896
- relative viability (Bemcentinib + Crizotinib; first compound 4 µM): 1.01
- relative viability (Bemcentinib + Foretinib; first compound 0.04 µM): 1.07
- relative viability (Bemcentinib + Foretinib; first compound 0.1265 µM): 0.907
- relative viability (Bemcentinib + Foretinib; first compound 0.4 µM): 1
- relative viability (Bemcentinib + Foretinib; first compound 1.265 µM): 0.959
- relative viability (Bemcentinib + Foretinib; first compound 4 µM): 1.02
- relative viability (Bemcentinib + OSI-027; first compound 0.04 µM): 0.84
- relative viability (Bemcentinib + OSI-027; first compound 0.1265 µM): 1.08
- relative viability (Bemcentinib + OSI-027; first compound 0.4 µM): 0.938
- relative viability (Bemcentinib + OSI-027; first compound 1.265 µM): 0.953
- relative viability (Bemcentinib + OSI-027; first compound 4 µM): 0.81

Cell Line: RERF-LC-KJ
- relative viability (Bemcentinib + Alpelisib; first compound 0.04 µM): 0.748
- relative viability (Bemcentinib + Alpelisib; first compound 0.1265 µM): 0.785
- relative viability (Bemcentinib + Alpelisib; first compound 0.4 µM): 0.91
- relative viability (Bemcentinib + Alpelisib; first compound 1.265 µM): 0.859
- relative viability (Bemcentinib + Alpelisib; first compound 4 µM): 0.919
- relative viability (Bemcentinib + Crizotinib; first compound 0.04 µM): 0.919
- relative viability (Bemcentinib + Crizotinib; first compound 0.1265 µM): 0.856
- relative viability (Bemcentinib + Crizotinib; first compound 0.4 µM): 0.78
- relative viability (Bemcentinib + Crizotinib; first compound 1.265 µM): 0.896
- relative viability (Bemcentinib + Crizotinib; first compound 4 µM): 0.841
- relative viability (Bemcentinib + Foretinib; first compound 0.04 µM): 0.943
- relative viability (Bemcentinib + Foretinib; first compound 0.1265 µM): 0.941
- relative viability (Bemcentinib + Foretinib; first compound 0.4 µM): 0.919
- relative viability (Bemcentinib + Foretinib; first compound 1.265 µM): 0.829
- relative viability (Bemcentinib + Foretinib; first compound 4 µM): 0.984
- relative viability (Bemcentinib + OSI-027; first compound 0.04 µM): 0.594
- relative viability (Bemcentinib + OSI-027; first compound 0.1265 µM): 0.552
- relative viability (Bemcentinib + OSI-027; first compound 0.4 µM): 0.571
- relative viability (Bemcentinib + OSI-027; first compound 1.265 µM): 0.58
- relative viability (Bemcentinib + OSI-027; first compound 4 µM): 0.567

Cell Line: SK-LU-1
- relative viability (Bemcentinib + Alpelisib; first compound 0.04 µM): 1.08
- relative viability (Bemcentinib + Alpelisib; first compound 0.1265 µM): 1.13
- relative viability (Bemcentinib + Alpelisib; first compound 0.4 µM): 1.1
- relative viability (Bemcentinib + Alpelisib; first compound 1.265 µM): 1.1
- relative viability (Bemcentinib + Alpelisib; first compound 4 µM): 1.1
- relative viability (Bemcentinib + Crizotinib; first compound 0.04 µM): 0.923
- relative viability (Bemcentinib + Crizotinib; first compound 0.1265 µM): 1.09
- relative viability (Bemcentinib + Crizotinib; first compound 0.4 µM): 0.943
- relative viability (Bemcentinib + Crizotinib; first compound 1.265 µM): 1.07
- relative viability (Bemcentinib + Crizotinib; first compound 4 µM): 1.09
- relative viability (Bemcentinib + Foretinib; first compound 0.04 µM): 0.854
- relative viability (Bemcentinib + Foretinib; first compound 0.1265 µM): 0.988
- relative viability (Bemcentinib + Foretinib; first compound 0.4 µM): 0.89
- relative viability (Bemcentinib + Foretinib; first compound 1.265 µM): 0.896
- relative viability (Bemcentinib + Foretinib; first compound 4 µM): 0.826
- relative viability (Bemcentinib + OSI-027; first compound 0.04 µM): 0.37
- relative viability (Bemcentinib + OSI-027; first compound 0.1265 µM): 0.382
- relative viability (Bemcentinib + OSI-027; first compound 0.4 µM): 0.35
- relative viability (Bemcentinib + OSI-027; first compound 1.265 µM): 0.369
- relative viability (Bemcentinib + OSI-027; first compound 4 µM): 0.331

Cell Line: SK-MES-1
- relative viability (Bemcentinib + Alpelisib; first compound 0.04 µM): 0.914
- relative viability (Bemcentinib + Alpelisib; first compound 0.1265 µM): 0.973
- relative viability (Bemcentinib + Alpelisib; first compound 0.4 µM): 0.998
- relative viability (Bemcentinib + Alpelisib; first compound 1.265 µM): 1.08
- relative viability (Bemcentinib + Alpelisib; first compound 4 µM): 1.08
- relative viability (Bemcentinib + Crizotinib; first compound 0.04 µM): 1.03
- relative viability (Bemcentinib + Crizotinib; first compound 0.1265 µM): 0.955
- relative viability (Bemcentinib + Crizotinib; first compound 0.4 µM): 0.998
- relative viability (Bemcentinib + Crizotinib; first compound 1.265 µM): 1.14
- relative viability (Bemcentinib + Crizotinib; first compound 4 µM): 1.06
- relative viability (Bemcentinib + Foretinib; first compound 0.04 µM): 1.11
- relative viability (Bemcentinib + Foretinib; first compound 0.1265 µM): 0.968
- relative viability (Bemcentinib + Foretinib; first compound 0.4 µM): 0.952
- relative viability (Bemcentinib + Foretinib; first compound 1.265 µM): 1.11
- relative viability (Bemcentinib + Foretinib; first compound 4 µM): 1.11
- relative viability (Bemcentinib + OSI-027; first compound 0.04 µM): 0.645
- relative viability (Bemcentinib + OSI-027; first compound 0.1265 µM): 0.595
- relative viability (Bemcentinib + OSI-027; first compound 0.4 µM): 0.666
- relative viability (Bemcentinib + OSI-027; first compound 1.265 µM): 0.799
- relative viability (Bemcentinib + OSI-027; first compound 4 µM): 0.69

Cell Line: SW 1573
- relative viability (Bemcentinib + Alpelisib; first compound 0.04 µM): 0.716
- relative viability (Bemcentinib + Alpelisib; first compound 0.1265 µM): 0.803
- relative viability (Bemcentinib + Alpelisib; first compound 0.4 µM): 0.909
- relative viability (Bemcentinib + Alpelisib; first compound 1.265 µM): 0.886
- relative viability (Bemcentinib + Alpelisib; first compound 4 µM): 0.88
- relative viability (Bemcentinib + Crizotinib; first compound 0.04 µM): 0.724
- relative viability (Bemcentinib + Crizotinib; first compound 0.1265 µM): 0.814
- relative viability (Bemcentinib + Crizotinib; first compound 0.4 µM): 0.684
- relative viability (Bemcentinib + Crizotinib; first compound 1.265 µM): 0.776
- relative viability (Bemcentinib + Crizotinib; first compound 4 µM): 0.764
- relative viability (Bemcentinib + Foretinib; first compound 0.04 µM): 0.821
- relative viability (Bemcentinib + Foretinib; first compound 0.1265 µM): 0.954
- relative viability (Bemcentinib + Foretinib; first compound 0.4 µM): 0.803
- relative viability (Bemcentinib + Foretinib; first compound 1.265 µM): 0.797
- relative viability (Bemcentinib + Foretinib; first compound 4 µM): 0.832
- relative viability (Bemcentinib + OSI-027; first compound 0.04 µM): 0.609
- relative viability (Bemcentinib + OSI-027; first compound 0.1265 µM): 0.731
- relative viability (Bemcentinib + OSI-027; first compound 0.4 µM): 0.677
- relative viability (Bemcentinib + OSI-027; first compound 1.265 µM): 0.589
- relative viability (Bemcentinib + OSI-027; first compound 4 µM): 0.661

Cell Line: UMC-11
- relative viability (Bemcentinib + Alpelisib; first compound 0.04 µM): 1.08
- relative viability (Bemcentinib + Alpelisib; first compound 0.1265 µM): 1.19
- relative viability (Bemcentinib + Alpelisib; first compound 0.4 µM): 1.11
- relative viability (Bemcentinib + Alpelisib; first compound 1.265 µM): 0.968
- relative viability (Bemcentinib + Alpelisib; first compound 4 µM): 1.05
- relative viability (Bemcentinib + Crizotinib; first compound 0.04 µM): 0.568
- relative viability (Bemcentinib + Crizotinib; first compound 0.1265 µM): 0.57
- relative viability (Bemcentinib + Crizotinib; first compound 0.4 µM): 0.589
- relative viability (Bemcentinib + Crizotinib; first compound 1.265 µM): 0.692
- relative viability (Bemcentinib + Crizotinib; first compound 4 µM): 0.662
- relative viability (Bemcentinib + Foretinib; first compound 0.04 µM): 0.939
- relative viability (Bemcentinib + Foretinib; first compound 0.1265 µM): 1.18
- relative viability (Bemcentinib + Foretinib; first compound 0.4 µM): 1.15
- relative viability (Bemcentinib + Foretinib; first compound 1.265 µM): 1.12
- relative viability (Bemcentinib + Foretinib; first compound 4 µM): 1.08
- relative viability (Bemcentinib + OSI-027; first compound 0.04 µM): 0.466
- relative viability (Bemcentinib + OSI-027; first compound 0.1265 µM): 0.528
- relative viability (Bemcentinib + OSI-027; first compound 0.4 µM): 0.504
- relative viability (Bemcentinib + OSI-027; first compound 1.265 µM): 0.516
- relative viability (Bemcentinib + OSI-027; first compound 4 µM): 0.473
